Measurements: patent publication US12606540B2, “Triazolone compound” (MEDSHINE DISCOVERY INC., priority 2020, dated 2026)
pEC50, pIC50: −log10 of the molar value. Read-outs that look alike come from different tables or passages of the source. Values belong to the compound of their own block, whether it stands above or below them.

Key:
DHODH enzyme = DHODH enzyme (Homo sapiens, UniProt Q02127); assay: DHODH enzyme inhibitory activity in vitro (resazurin fluorescence); format: biochemical; conditions: 5 nM DHODH, 15 μM L-DHO, 80 μM Resazurin
Excerpt: The DHODH inhibitory activity of the compounds was detected by the following experimental method, and the experimental results are as shown in Table 1.
DHODH uses flavin mononucleotide FMN to catalyze the oxidation of dihydrooratic acid DHO to produce oratic acid, while the re-oxidation of FMN requires the participation of coenzyme CoQ. In the experiment of detecting the DHODH enzyme activity, CoQ was replaced by Resazurin dye as the final electron acceptor in the enzyme activity reaction. Resazurin solution is blue, and the resorufin generated after reduction has red fluorescence, and the fluorescence signal can be detected under the 535 nm of excitation wavelength and the 590 nm of emission wavelength. The components of the reaction buffer used in the experiment were 100 mM Hepes pH 7.0, 150 mM NaCl, 0.3% CHAPS, 0.5 mg/mL BSA, 0.1 μM FMN and 1% DMSO. The final concentration of DHODH enzyme in the reaction system was 5 nM, and the final concentration of substrate L-DHO was 15 μM, the final concentration of indicator Resazurin was 80 μM. The components of the reaction stop buffer were 100 mM Hepes pH 7.0 and 5 mM Orotate. The specific method was as follows: 2-fold final concentration of the DHODH enzyme solution was mixed with the compound, incubated at room temperature for 20 min, 2-fold final concentration of the substrate mixture solution of L-DHO and resazurin was added and reacted, incubated at room temperature away from light for 45 min. Then the reaction was stopped by adding 2-fold final concentration of the reaction stop buffer to the reaction system, and incubated at room temperature for 10 min, the fluorescence signal of the reaction system was detected with EnVision under the condition of Ex/Em=535/590 nm.

[1] = system: influenza virus A/Weiss/43 (H1N1); assay: Influenza virus cytopathic effect (CPE) experiment in MDCK cells; format: cell-based; conditions: unidentified influenza virus, H1N1, 120 h, 5 days incubation, CCK8
[2] = Pharmacokinetic evaluation in mice (IV and PO); format: in vivo, female Balb/c mice; conditions: for MRT last: read-out: MRT0-last
Experimental: Experiment process: 0.04 mg/mL of a clarified solution of the test compound in 5% DMSO/10% Solutol solution/85% water was injected into female Balb/c mice (overnight fasting, 7-9 weeks of age) via tail vein, with dosage of 0.2 mg/kg. 0.1 mg/mL of the test compound in 5% DMSO/10% Solutol solution/0.2% Tween80/84.8% water was administered by gavage to female Balb/c mice (overnight fasting, 7-9 weeks of age), with dosage of 1 mg/kg. About 30 μL of blood was collected from the jugular vein at 0.0833, 0.25, 0.5, 1.0, 2.0, 4.0, 8.0, 10 and 24 h and from the tail vein at 0.25, 0.5, 1.0, 2.0, 4.0, 8.0 and 24 h after administration for both groups of animals, and were placed in anticoagulation tubes with EDTA-K2, and the blood was separated by centrifugation to obtain plasma. Plasma concentrations were detected by LC-MS/MS, and relevant pharmacokinetic parameters were calculated using WinNonlin™ Version 6.3 (Pharsight, Mountain View, CA) pharmacokinetic software with a non-compartmental model linear logarithmic trapezoid method.

MDR1 (P-glycoprotein) = assay: Permeability evaluation on MDR1-MDCK II cell line; conditions: dog, MDCK-MDR1, pH 7.4
[3] = system: human peripheral blood mononuclear cells; assay: Proliferation inhibition of peripheral blood mononuclear cells (flow cytometry); format: cell-based; conditions: PBMC, PHA-M 5 μg/mL stimulation, 48 hours
Experimental: Flow cytometry was used to detect cell proliferation of human peripheral blood mononuclear cells.
• Cell complete medium: 445 mL of RPMI1640 cell culture+50 mL of fetal bovine serum+5 mL of double antibody • Buffer 1: 9.9 mL of phosphate buffer+0.1 mL of 10% bovine serum protein • Buffer 2: 10 mL of fetal bovine serum+490 mL of phosphate buffer 3.2 Cell Thawing • 3.2.1 20 mL of cell complete medium was added to a 50 mL of centrifuge tube and pre-heated in a 37° C. water bath for 5 minutes; • 3.2.2 the cell cryotubes were removed from the liquid nitrogen storage tank and placed on dry ice for 5-10 minutes to allow the liquid nitrogen to evaporate fully; • 3.2.3 the cell cryotubes were clamped with forceps and placed in the water bath, and shaken gently to thaw the frozen cells quickly; • 3.2.4 the thawed cells were transferred to the pre-heated cell complete medium with a pipette, centrifuged at 350 g for 5 min, then the supernatant was discarded, and the cells was resuspended by adding 10 mL of phosphate buffer; • 3.2.5 counting by cell counter, and cell viability and cell count were recorded. 3.3 Cell Labeling • 3.3.1 Cell proliferation labeling solution (CellTrace™ Violet, 1:1000 dilution) was prepared • 3.3.2 the above mixture was centrifuged at 350 g for 5 minutes, and the supernatant was discarded, then the cells (20×10^6/mL) were resuspended by adding Buffer 1, and the resuspended cells were gently blown by pipette, and an equal volume of cell proliferation labeling solution (prepared in 3.3.1) was added, and gently blown well by pipette; • 3.3.3 incubating in a 5% CO2, 37° C. cell incubator for 18 minutes; • 3.3.4 the 5-fold volume of cell complete medium was added and leaved at room temperature for 5 minutes to terminate the staining reaction; • 3.3.5 the above mixture was centrifuged at 350 g for 5 minutes, and the supernatant was discarded, then the cells were resuspended by adding 10 mL of cell complete medium, counted by cell counter, and cell viability and cell count were recorded; • 3.3.6 the above mixture was centrifuged at 350 g for 5 minutes, and the supernatant was discarded, then the corresponding volume of cell complete medium was added according to the cell counting results, and the density of the resuspended cells was 2×10^6/mL and was to be used. 3.4 Cell Proliferation Stimulation • 3.4.1 50 μL/well prepared cell suspension (1×10^5 cells/well), 50 μL of 4×PHA-M (the final concentration is 5 μg/mL), 50 μL of 4×test compound, 50 μL of cell complete medium were added to the wells of 96-well cell culture plate, and the corresponding control group was set up; (total volume of the reaction system is 200 μL) • 3.4.2 the cell culture plate was placed and incubated in a 5% CO2, 37° C. cell incubator for 48 hours. 3.5 Cell Proliferation Detection • 3.5.1 the above mixture was centrifuged at 350 g for 5 minutes and the supernatant was transferred to a new cell culture plate and stored at −80° C.; • 3.5.2 200 μL of Buffer 2 was add to the wells of the culture plate, and the above mixture was centrifuged at 350 g and the supernatant was discarded; • 3.5.3 cell dead or living staining solution (7-AAD, 1:100 dilution) was prepared with Buffer 2; • 3.5.4 100 μL/well of dead or living staining solution was added, and gently blown and mixed well by pipette, and stained at room temperature for 10 min; • 3.5.5 cell proliferation was detected by flow cytometry analyzer and analyzed by Flowjo software.

[4] = female, Balb/c, mouse, plasma, IV 0.2 mg/kg
[5] = female, Balb/c, mouse, plasma, PO 1 mg/kg

DHODH enzyme, sequence (Q02127 whole entry): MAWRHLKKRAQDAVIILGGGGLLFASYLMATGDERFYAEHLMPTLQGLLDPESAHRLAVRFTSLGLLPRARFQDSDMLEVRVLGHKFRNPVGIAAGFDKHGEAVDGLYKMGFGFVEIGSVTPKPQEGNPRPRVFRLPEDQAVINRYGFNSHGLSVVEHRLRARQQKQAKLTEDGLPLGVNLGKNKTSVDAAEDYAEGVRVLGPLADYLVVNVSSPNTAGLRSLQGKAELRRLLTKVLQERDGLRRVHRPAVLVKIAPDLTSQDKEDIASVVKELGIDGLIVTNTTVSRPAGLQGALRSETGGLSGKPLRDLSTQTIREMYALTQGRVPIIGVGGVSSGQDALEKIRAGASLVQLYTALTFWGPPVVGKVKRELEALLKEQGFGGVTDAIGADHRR

SMILES: CCn1c(CO)nn(-c2cc(O[C@@H](C)C(F)(F)F)c(/C(F)=C/c3cccnc3OC)cc2F)c1=O [Compound 6]
- pIC50 (DHODH enzyme): 7.91
- pEC50 [1]: 7.17
- Tlast ([2]; IV 0.2 mg/kg): 24.0 h
- F ([2]; PO 1 mg/kg): 85.4%
- Tlast ([2]; PO 1 mg/kg): 24.0 h
- AUC(0-inf) [2, 4]: 2.13 µM·h
- AUC(0-t) [2, 4]: 1.96 µM·h
- clearance [2, 4]: 3.14 mL/min/kg
- half-life [2, 4]: 6.83 h
- MRT last [2, 4]: 5.93 h
- Vd ([2]; female, Balb/c, mouse, plasma, IV 0.2 mg/kg, read-out: VdSS): 1.53 L/kg
- AUC(0-inf) [2, 5]: 9.08 µM·h
- AUC(0-t) [2, 5]: 7.79 µM·h
- Tmax [2, 5]: 2 h
- half-life [2, 5]: 9.19 h
- MRT last [2, 5]: 7.76 h
- C0 ([2]; female, Balb/c, mouse, IV 0.2 mg/kg, plasma): 640 nM
- Cmax ([2]; female, Balb/c, mouse, PO 1 mg/kg, plasma): 935 nM
- Papp A→B at 150 min, 2 μM (MDR1 (P-glycoprotein)): 3.72 ×10⁻⁶ cm/s
- Papp B→A at 150 min, 2 μM (MDR1 (P-glycoprotein)): 3.55 ×10⁻⁶ cm/s
- Papp at 150 min, 2 μM (MDR1 (P-glycoprotein)): 1 to 5.5 ×10⁻⁶ cm/s
- efflux ratio at 150 min, 2 μM (MDR1 (P-glycoprotein)): 0.95

SMILES: CCn1c(CO)nn(-c2cc(O[C@@H](C)C(F)(F)F)c(/C(F)=C/c3c(F)cncc3Cl)cc2F)c1=O [Compound 2]
- pIC50 (DHODH enzyme): 8.41
- pEC50 [1]: 7.70

- pIC50 (DHODH enzyme): 8.10
SMILES: CCn1c(C(=O)O)nn(-c2cc(O[C@@H](C)C(F)(F)F)c(/C(F)=C/c3ncccc3Cl)cc2F)c1=O [Compound 24]

- pIC50 (DHODH enzyme): 8.05
SMILES: CCn1c(C(=O)O)nn(-c2cc(O[C@@H](C)C(F)(F)F)c(/C(F)=C/c3c(F)cncc3Cl)cc2F)c1=O [Compound 21]

SMILES: CCn1c(CO)nn(-c2cc(O[C@@H](C)C(F)(F)F)c(/C(F)=C/c3cnccc3Cl)cc2F)c1=O [Compound 28]
- pIC50 (DHODH enzyme): 8.62
- pEC50 [1]: 7.37
- pIC50 [3]: 8.08
- Papp A→B at 150 min, 2 μM (MDR1 (P-glycoprotein)): 8.65 ×10⁻⁶ cm/s
- Papp B→A at 150 min, 2 μM (MDR1 (P-glycoprotein)): 10.7 ×10⁻⁶ cm/s
- Papp at 150 min, 2 μM (MDR1 (P-glycoprotein)): > 5.5 ×10⁻⁶ cm/s
- efflux ratio at 150 min, 2 μM (MDR1 (P-glycoprotein)): 1.24

- pIC50 (DHODH enzyme): 8.10
SMILES: CCn1c(CO)nn(-c2cc(O[C@@H](C)C(F)(F)F)c(/C(F)=C/c3ncccc3C(F)F)cc2F)c1=O [Compound 30]

SMILES: CCn1c(CO)nn(-c2cc(O[C@@H](C)C(F)(F)F)c(/C(F)=C/c3c(F)cccc3Cl)cc2F)c1=O [Compound 1]
- pIC50 (DHODH enzyme): 9.15
- pEC50 [1]: > 9.00

- pIC50 (DHODH enzyme): 6.92
SMILES: CCn1c(CO)nn(-c2cc(OC(C)C(F)(F)F)c(C=Cc3ncccc3Cl)cc2F)c1=O (stereo not shown) [Compound 22]

SMILES: CCn1c(CO)nn(-c2cc(O[C@@H](C)C(F)(F)F)c(/C=C/c3c(F)cccc3Cl)cc2F)c1=O [Compound 35]
- pIC50 (DHODH enzyme): 8.59
- pEC50 [1]: 7.38

- pIC50 (DHODH enzyme): 8.14
SMILES: CCn1c(CO)nn(-c2cc(O[C@@H](C)C(F)(F)F)c(/C(F)=C/c3cccnc3)cc2F)c1=O [Compound 40]
